Measurements taken from ChEMBL document CHEMBL1201862, “PubChem BioAssay data set” (2004).
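Growth conditions: 96-well plates. Treatment: test compound, 48 hours, 5 concentrations. Analysis: linear interpolation between bracketing concentrations; unreached endpoints set to highest concentration. At the GI50, growth is halved.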 Active and inactive are the calls of the source. No stated cut-off is given here; in the data, active = GI50 up to about 1.1 µM and inactive = higher.

Assays:
Test in all cases: NCI anticancer screen, dose series, 48 h
[1] = system: SNB-75
[2] = system: MCF7
[3] = system: HOP-92
[4] = system: ACHN
[5] = system: K562
[6] = system: HL-60
[7] = system: MOLT-4
[8] = system: SK-MEL-28
[9] = system: SF-539
[10] = system: SF-295
[11] = system: SK-MEL-2
[12] = system: UO-31
[13] = system: CAKI-1
[14] = system: SK-MEL-5
[15] = system: NCI-H226
[16] = system: RXF 393
[17] = system: OVCAR-4
[18] = system: HCT-116
[19] = system: HCC 2998
[20] = system: SN12C

SMILES	GI50 [1]	GI50 [2]	GI50 [3]	GI50 [4]	GI50 [5]	GI50 [6]	GI50 [7]	GI50 [8]	GI50 [9]	GI50 [10]	GI50 [11]	GI50 [12]	GI50 [13]	GI50 [14]	GI50 [15]	GI50 [16]	GI50 [17]	GI50 [18]	GI50 [19]	GI50 [20]
O=S(=O)(O)c1ccc2cc(/N=N\c3cc(S(=O)(=O)O)c4cccnc4c3O)ccc2c1	> 100 µM (inactive)	> 100 µM (inactive)	> 100 µM (inactive)	> 100 µM (inactive)	> 100 µM (inactive)	1.61 µM (inactive)	> 100 µM (inactive)	> 100 µM (inactive)	> 100 µM (inactive)	> 100 µM (inactive)	> 100 µM (inactive)	> 100 µM (inactive)	> 100 µM (inactive)	> 100 µM (inactive)	> 100 µM (inactive)	> 100 µM (inactive)	> 100 µM (inactive)	> 100 µM (inactive)		
O=C(NCCCl)O/N=C/c1cccnc1	61 µM (inactive)	> 100 µM (inactive)	> 100 µM (inactive)		> 100 µM (inactive)	> 100 µM (inactive)	> 100 µM (inactive)	> 100 µM (inactive)	> 100 µM (inactive)	> 100 µM (inactive)	> 100 µM (inactive)	> 100 µM (inactive)	> 100 µM (inactive)	> 100 µM (inactive)	> 100 µM (inactive)		> 100 µM (inactive)	> 100 µM (inactive)	> 100 µM (inactive)	> 100 µM (inactive)
Cc1ccnn1CCc1ccc(Cl)cc1Cl	14.5 µM (inactive)	31.9 µM (inactive)		27.9 µM (inactive)	29.1 µM (inactive)	7.69 µM (inactive)	13.1 µM (inactive)	35.4 µM (inactive)	18.2 µM (inactive)	18 µM (inactive)		4.63 µM (inactive)	28.1 µM (inactive)	19 µM (inactive)		9.91 µM (inactive)	11.7 µM (inactive)	47.5 µM (inactive)		11.8 µM (inactive)
O=C(CC1Sc2ccccc2NC1=O)Nc1ccc(Cl)cc1 (stereo unspecified)	13.1 µM (inactive)		19.6 µM (inactive)	26.5 µM (inactive)	> 100 µM (inactive)	> 100 µM (inactive)	> 100 µM (inactive)	> 100 µM (inactive)	50.2 µM (inactive)	> 100 µM (inactive)	> 100 µM (inactive)	> 100 µM (inactive)	> 100 µM (inactive)	> 100 µM (inactive)	> 100 µM (inactive)	31.1 µM (inactive)	18.2 µM (inactive)	42.9 µM (inactive)	72.1 µM (inactive)	> 100 µM (inactive)
O=C1Nc2ccccc2C(=O)/C1=C/NC(=S)NCCc1ccccc1	> 100 µM (inactive)	> 100 µM (inactive)	> 100 µM (inactive)	> 100 µM (inactive)		> 100 µM (inactive)	4.03 µM (inactive)	> 100 µM (inactive)	> 100 µM (inactive)	> 100 µM (inactive)	> 100 µM (inactive)	> 100 µM (inactive)	> 100 µM (inactive)	> 100 µM (inactive)	> 100 µM (inactive)		> 100 µM (inactive)	> 100 µM (inactive)	> 100 µM (inactive)	> 100 µM (inactive)
Oc1cn(-c2ccc(Cl)cc2)nc1-c1nnc(-c2ccccc2)o1	> 22.6 µM (inactive)	0.263 µM (active)	18.8 µM (inactive)		0.122 µM (active)	0.181 µM (active)	0.193 µM (active)	15.2 µM (inactive)	0.411 µM (active)	0.102 µM (active)	16.9 µM (inactive)	0.726 µM (active)	0.359 µM (active)	0.268 µM (active)	0.931 µM (active)	1.14 µM (inactive)	19.5 µM (inactive)	0.0769 µM (active)		1.43 µM (inactive)
CCOC(=O)c1sc2nc(SC)nc3c2c1NC(=O)CN3c1cccc(F)c1		29 µM (inactive)	22.5 µM (inactive)	13 µM (inactive)	22.4 µM (inactive)	0.491 µM (active)	30 µM (inactive)	0.138 µM (active)	0.735 µM (active)	16.3 µM (inactive)	27.4 µM (inactive)	15.5 µM (inactive)	44.3 µM (inactive)	0.855 µM (active)	6.93 µM (inactive)	16.7 µM (inactive)	17.9 µM (inactive)	18.2 µM (inactive)		17.2 µM (inactive)
CC1=C(C(=O)NCc2ccccc2)C(c2ccco2)C(C(=O)NCc2ccccc2)=C(C)N1	> 100 µM (inactive)		92.9 µM (inactive)	31.5 µM (inactive)	30.3 µM (inactive)	17.8 µM (inactive)	23 µM (inactive)	> 100 µM (inactive)	> 100 µM (inactive)	56.9 µM (inactive)	27.6 µM (inactive)	> 100 µM (inactive)	57.5 µM (inactive)	> 100 µM (inactive)	> 100 µM (inactive)	66.8 µM (inactive)	55.7 µM (inactive)	71.4 µM (inactive)	47 µM (inactive)	91.6 µM (inactive)
COc1ccc(C2=C(N)c3c(Cl)cccc3C2=O)cc1	> 100 µM (inactive)	> 100 µM (inactive)	34.9 µM (inactive)	> 100 µM (inactive)		> 100 µM (inactive)	95.1 µM (inactive)	> 100 µM (inactive)	> 100 µM (inactive)	> 100 µM (inactive)	> 100 µM (inactive)		> 100 µM (inactive)	> 100 µM (inactive)	> 100 µM (inactive)		> 100 µM (inactive)	83.9 µM (inactive)	> 100 µM (inactive)	> 100 µM (inactive)
O=C(C1C(c2ccccc2)N1C(c1ccccc1)c1ccccc1)C1C(c2ccccc2)N1C(c1ccccc1)c1ccccc1 (stereo unspecified)	45.6 µM (inactive)	5.31 µM (inactive)		> 10 µM (inactive)	3.66 µM (inactive)	2.88 µM (inactive)	6.9 µM (inactive)	15.7 µM (inactive)	20 µM (inactive)	75.7 µM (inactive)		21 µM (inactive)		20.6 µM (inactive)			38.1 µM (inactive)	5.08 µM (inactive)	17.7 µM (inactive)	21.8 µM (inactive)
O=C1Cc2c([nH]c3cc(Br)ccc23)-c2ccccc2N1	23.8 µM (inactive)	34.6 µM (inactive)	31.1 µM (inactive)	17.5 µM (inactive)	4.09 µM (inactive)	58.2 µM (inactive)	3.56 µM (inactive)	> 100 µM (inactive)	16.2 µM (inactive)	22.5 µM (inactive)		17.6 µM (inactive)		16 µM (inactive)	6.98 µM (inactive)	3.24 µM (inactive)	10.3 µM (inactive)	3.4 µM (inactive)		18.5 µM (inactive)
C=C[C@@](C)(/C=C/c1ccc(O)cc1)CCC=C(C)C [BAKUCHIOL]	14 µM (inactive)	19.5 µM (inactive)	16.5 µM (inactive)	10.6 µM (inactive)	15.7 µM (inactive)	14.1 µM (inactive)	13.1 µM (inactive)	20 µM (inactive)		20.2 µM (inactive)	22 µM (inactive)	17.7 µM (inactive)	18.6 µM (inactive)	16 µM (inactive)	19 µM (inactive)		14 µM (inactive)	18.1 µM (inactive)	20.6 µM (inactive)	18.5 µM (inactive)
